According to US9856511B2, “Protease deubiquitinating inhibitor screening” (priority 2011, dated 2018):

Key:
Type in all cases: biochemical
[1] = biological target: T1, 19S RP (Homo sapiens, UniProt P54578+Q9Y5K5); experiment: Ub-GFP cleavage assay with 19S RP
T1 construct: purchased Boston Biochem E-366
Description: To this end the ability of b-AP15 to inhibit cleavage of recombinant ubiquitin-GFP was assessed. Recombinant ubiquitin-GFP is a substrate for 19S RP DUB activity (22). […] The type of ubiquitin bonds present in the polyubiquitin chain determines the fate of an ubiquitin-modified substrate. K48 linked polyubiquitin chains generally targets conjoined proteins for degradation (23), whereas K63 linked chains are involved in non-proteolytic roles including DNA repair (24) and mitotic chromosome segregation (25). […] The inhibition of ubiquitin chain disassembly observed could account for the accumulation of high molecular weight ubiquitin conjugates in b-AP15 treated cells.
The recombinant Ub-GFP plasmid pet19b Ub-M-GFP was generated as described (42). In brief recombinant Ub-GFP was purified from BL21 E. coli cells by His affinity purification. For cleavage assays 19S RP (25 nM) was incubated with 10 mM NEM, 250 μM TPEN or 50 μM b-AP15 for 10 min followed by the addition of recombinant Ub-GFP (200 nM). […] The level of Ub-GFP cleavage or ubiquitin disassembly was determined by immunoblotting with anti ubiquitin antibodies. […] The cleavage of ubiquitinated Hdm2 substrate and ubiquitinated Hdm2 was determined by immunoblotting with anti-Hdm2 antibodies. […]

[2] = system: non-proteasomal DUBs (UCH-L1, UCH-L3, USP2CD, USP7CD, USP8CD, BAP1); experiment: Recombinant non-proteasomal DUBs with ubiquitin-AMC, % activity
Description: In vitro proteasome activity assays using 20S CP (2 nM) (Boston Biochem) were performed at 37° C. in 100-μl reaction buffer (25 mM Hepes, 0.5 mM EDTA, 0.03% SDS). Samples were incubated for 10 min with indicated compound followed by addition of 10 μM Suc-LLVY-AMC, Z-LLE-AMC or Boc-LRR-AMC for the detection of chymotrypsin-like, caspase-like and trypsin-like activity respectively. For DUB inhibition assays 19S RP (5 nM), 26S (5 nM) UCH-L1 (5 nM), UCH-L3 (0.3 nM), USP2CD (5 nM) USP7CD (5 nM) USP8CD (5 nM) and BAP1 (5 nM) were incubated with b-AP15 followed by addition of ubiquitin-AMC (1000 nM). Fluorescence was monitored using Wallac Multilabel counter or Tecan Infinite M1000 equipped with 360 nm excitation and 460 nm emission filters. Substrate overlay assays. Native gel electrophoresis was performed as described (41). In brief 4 μg of purified 26S proteasome (Boston Biochem) was mixed with 10 or 50 μM b-AP15 and incubated at 37° C. for 10 min. Samples were resolved on 4% non-denaturing PAGE. Gels were submerged in assay buffer (20 mM Tris-HCL, 5 mM MgCl2, 1 mM ATP, 0.1 mM Suc-LLVY-AMC) and proteasomes were visualized under UV illumination.
HCT-116 cells were treated for 3 h with b-AP15 (1 μM) and the proteasomes were affinity purified (FIG. 12a). […] Recombinant non-proteosomal DUBs were treated with b-AP15 and % activity determined. […]

[3] = biological target: T2, 26S proteasome (Homo sapiens, UniProt P54578+Q9Y5K5); experiment: DUB inhibition assay, 26S proteasomes with ubiquitin-AMC; conditions: Ub-AMC
T2 construct: purchased Boston Biochem E-365

[4] = biological target: T3, human 20S proteasome (Homo sapiens, UniProt P28072+P28074+Q99436); experiment: In vitro proteasome activity assay (Suc-LLVY-AMC, Z-LLE-AMC, Boc-LRR-AMC); conditions: molar excess of b-AP15
T3 construct: purchased Boston Biochem E-360
Description: 20S CP contains the β1, β2 and […] proteolytic subunits responsible for caspase-like, trypsin-like and chymotrypsin-like activities of the proteasome, respectively (18).
In vitro proteasome activity assays were performed in black 96-well microtiter plates using human 20S proteasome (Boston Biochem) in reaction buffer (25 mM Hepes, 0.5 mM EDTA, 0.03% SDS) with Suc-LLVY-AMC, Z-LLE-AMC or Boc-LRRAMC used as substrates for proteasome activity. De-ubiquitinase activity assays were performed with human 19S RP (Boston Biochem) with ubiquitin-AMC as substrate. For xenograft studies a 100-μl-cell suspension containing 1×10^6 FaDu head-neck or 2×10^5 Lewis Lung Carcinoma (LLC) cells were injected subcutaneously into the flank of SCID or C57BL/6J mice. Upon tumor take mice were randomized into control or treatment groups and administered with 5 mg kg^−1 b-AP15 or vehicle. In vivo levels of apoptosis and cell death were determined from the detection of caspase cleaved and total levels of cytokeratin-18 in plasma using M30 Apoptosense® and M65 ELISA®s assays (Peviva). […]
In vitro proteasome activity assays using 20S CP (2 nM) (Boston Biochem) were performed at 37° C. in 100-μl reaction buffer (25 mM Hepes, 0.5 mM EDTA, 0.03% SDS). […] Fluorescence was monitored using Wallac Multilabel counter or Tecan Infinite M1000 equipped with 360 nm excitation and 460 nm emission filters. […]

C=CC(=O)N1C/C(=C\c2ccc([N+](=O)[O-])cc2)C(=O)/C(=C/c2ccc([N+](=O)[O-])cc2)C1 [b-AP15]
cleavage of Ub-GFP by 19S RP [1]: effectively inhibited
inhibition of recombinant non-proteasomal DUBs [2]: does not inhibit non-proteasomal DUBs
inhibition of deubiquitinating activity of 26S proteasome [3]: inhibits the deubiquitinating activity
caspase-like, trypsin-like and chymotrypsin-like activities of the proteasome [4]: do not show alteration
